# In ChEMBL document CHEMBL2203055, “From α4β2 Nicotinic Ligands to the Discovery of σ1 Receptor Ligands: Pharmacophore Analysis and Rational Design” (ACS Med Chem Lett, 2012):
# Key:
# Rattus norvegicus [1] = organism: Rattus norvegicus; assay: Inhibitory activity against benzodiazepine receptor in rat brain at 10 uM; format: tissue-based
# [2] = target: Alpha-2A adrenergic receptor (Homo sapiens) (UniProt P08913); assay: Displacement of […] from alpha 2A adrenergic receptor at 10 uM after 40 mins by microbeta scintillation counting analysis
# [3] = target: Beta-2 adrenergic receptor (Homo sapiens, UniProt P07550); assay: Displacement of [125I]Iodopindolol from beta 2 adrenergic receptor at 10 uM after 1.5 hrs by microbeta scintillation counting analysis
# [4] = target: Sodium-dependent noradrenaline transporter (Homo sapiens, UniProt P23975); assay: Displacement of [3H]nisoxetine from human recombinant NET at 10 uM after 1.5 hrs by microbeta scintillation counting analysis
# [5] = target: 5-hydroxytryptamine receptor 7 (Homo sapiens) (UniProt P34969); assay: Displacement of [3H]LSD from human recombinant 5-HT7 receptor at 10 uM after 1.5 hrs by microbeta scintillation counting analysis
# Histamine H1 receptor = Histamine H1 receptor (Homo sapiens, UniProt P35367); assay: Displacement of [3H]pyrilamine from human recombinant histamine H1 receptor at 10 uM after 1.5 hrs by microbeta scintillation counting analysis
# [6] = target: 5-hydroxytryptamine receptor 1D (Homo sapiens) (UniProt P28221); assay: Displacement of [3H]GR125743 from human recombinant 5-HT1D receptor at 10 uM after 1.5 hrs by microbeta scintillation counting analysis
# Histamine H2 receptor = Histamine H2 receptor (Homo sapiens, UniProt P25021); assay: Displacement of [3H]tiotidine from human recombinant histamine H2 receptor at 10 uM after 1.5 hrs by microbeta scintillation counting analysis
# [7] = target: D(2) dopamine receptor (Homo sapiens) (UniProt P14416); assay: Displacement of [3H]N-methylspiperone from human recombinant D2 receptor at 10 uM after 1.5 hrs by microbeta scintillation counting analysis
# [8] = target: 5-hydroxytryptamine receptor 2C (Homo sapiens, UniProt P28335); assay: Displacement of [3H]mesulergine from human recombinant 5-HT2C receptor after 1.5 hrs by microbeta scintillation counting analysis
# [9] = target: 5-hydroxytryptamine receptor 2A (Homo sapiens, UniProt P28223); assay: Displacement of [3H]ketanserin from human recombinant 5-HT2A receptor at 10 uM after 1.5 hrs by microbeta scintillation counting analysis
# [10] = target: Alpha-1D adrenergic receptor (Homo sapiens) (UniProt P25100); assay: Inhibitory activity against alpha 1D adrenergic receptor at 10 uM
# [11] = target: 5-hydroxytryptamine receptor 1B (Homo sapiens) (UniProt P28222); assay: Displacement of [3H]GR125743 from human recombinant 5-HT1B receptor at 10 uM after 1.5 hrs by microbeta scintillation counting analysis
# [12] = target: 5-hydroxytryptamine receptor 2C (Homo sapiens) (UniProt P28335); assay: Displacement of [3H]mesulergine from human recombinant 5-HT2C receptor at 10 uM after 1.5 hrs by microbeta scintillation counting analysis
# [13] = target: Sigma non-opioid intracellular receptor 1 (Rattus norvegicus, UniProt Q9R0C9); assay: Displacement of [3H]pentazocine from sigma 1 receptor in rat brain membrane after 2.5 hrs by microbeta scintillation counting analysis; format: cell membranes
# [14] = target: 5-hydroxytryptamine receptor 1A (Homo sapiens) (UniProt P08908); assay: Displacement of [3H]-8-OH-DPAT from human recombinant 5-HT1A receptor at 10 uM after 1.5 hrs by microbeta scintillation counting analysis
# [15] = target: Muscarinic acetylcholine receptor M4 (Homo sapiens) (UniProt P08173); assay: Displacement of [3H]QNB from human recombinant muscarinic M4 receptor at 10 uM after 1.5 hrs by microbeta scintillation counting analysis
# [16] = target: 5-hydroxytryptamine receptor 6 (Homo sapiens, UniProt P50406); assay: Displacement of [3H]LSD from human recombinant 5-HT6 receptor at 10 uM after 1.5 hrs by microbeta scintillation counting analysis
# [17] = Displacement of [3H]DTG from sigma 2 receptor in rat PC12 cell membrane after 2 hrs by microbeta scintillation counting analysis; format: cell membranes; conditions: pc-12
# [18] = target: Muscarinic acetylcholine receptor M5 (Homo sapiens) (UniProt P08912); assay: Displacement of [3H]QNB from human recombinant muscarinic M5 receptor at 10 uM after 1.5 hrs by microbeta scintillation counting analysis
# [19] = target: Alpha-2B adrenergic receptor (Homo sapiens) (UniProt P18089); assay: Displacement of [3H]clonidine from human recombinant alpha 2B adrenergic receptor at 10 uM after 40 mins by microbeta scintillation counting analysis
# [20] = target: 5-hydroxytryptamine receptor 1E (Homo sapiens) (UniProt P28566); assay: Displacement of [3H]5-HT from human recombinant 5-HT1E receptor at 10 uM after 1.5 hrs by microbeta scintillation counting analysis
# [21] = target: Muscarinic acetylcholine receptor M3 (Homo sapiens) (UniProt P20309); assay: Displacement of [3H]QNB from human recombinant muscarinic M3 receptor at 10 uM after 1.5 hrs by microbeta scintillation counting analysis
# Rattus norvegicus [22] = organism: Rattus norvegicus; assay: Displacement of [3H]muscimol from GABAA receptor in rat brain membrane at 10 uM after 1.5 hrs by microbeta scintillation counting analysis; format: cell membranes
# [23] = target: Alpha-1B adrenergic receptor (Homo sapiens) (UniProt P35368); assay: Displacement of [3H]prazosin from alpha 1B adrenergic receptor at 10 uM after 1 hr by microbeta scintillation counting analysis
# [24] = target: D(4) dopamine receptor (Homo sapiens) (UniProt P21917); assay: Displacement of [3H]N-methylspiperone from D4 receptor at 10 uM after 1.5 hrs by microbeta scintillation counting analysis
# [25] = target: 5-hydroxytryptamine receptor 2B (Homo sapiens, UniProt P41595); assay: Displacement of [3H]LSD from human recombinant 5-HT2B receptor at 10 uM after 1.5 hrs by microbeta scintillation counting analysis
# [26] = target: 5-hydroxytryptamine receptor 5A (Homo sapiens) (UniProt P47898); assay: Displacement of [3H]LSD from human recombinant 5-HT5A receptor at 10 uM after 1.5 hrs by microbeta scintillation counting analysis
# [27] = target: Muscarinic acetylcholine receptor M2 (Homo sapiens) (UniProt P08172); assay: Displacement of [3H]QNB from human recombinant muscarinic M2 receptor at 10 uM after 1.5 hrs by microbeta scintillation counting analysis
# [28] = target: 5-hydroxytryptamine receptor 3A (Homo sapiens) (UniProt P46098); assay: Displacement of [3H]LY-278584 from human recombinant 5-HT3 receptor at 10 uM after 1.5 hrs by microbeta scintillation counting analysis
# [29] = target: Kappa-type opioid receptor (Rattus norvegicus) (UniProt P34975); assay: Displacement of [3H]U69593 from rat kappa-opioid receptor at 10 uM after 1.5 hrs by microbeta scintillation counting analysis
# [30] = target: Delta-type opioid receptor (Homo sapiens) (UniProt P41143); assay: Displacement of [3H]DADLE from human recombinant delta-opioid receptor at 10 uM after 1.5 hrs by microbeta scintillation counting analysis
# [31] = target: Muscarinic acetylcholine receptor M1 (Homo sapiens) (UniProt P11229); assay: Displacement of [3H]QNB from human recombinant muscarinic M1 receptor at 10 uM after 1.5 hrs by microbeta scintillation counting analysis
# [32] = target: Alpha-2C adrenergic receptor (Homo sapiens) (UniProt P18825); assay: Displacement of [3H]clonidine from alpha 2C adrenergic receptor at 10 uM after 40 mins by microbeta scintillation counting analysis
# 5-hydroxytryptamine receptor 3A (Homo sapiens), sequence (P46098 whole entry): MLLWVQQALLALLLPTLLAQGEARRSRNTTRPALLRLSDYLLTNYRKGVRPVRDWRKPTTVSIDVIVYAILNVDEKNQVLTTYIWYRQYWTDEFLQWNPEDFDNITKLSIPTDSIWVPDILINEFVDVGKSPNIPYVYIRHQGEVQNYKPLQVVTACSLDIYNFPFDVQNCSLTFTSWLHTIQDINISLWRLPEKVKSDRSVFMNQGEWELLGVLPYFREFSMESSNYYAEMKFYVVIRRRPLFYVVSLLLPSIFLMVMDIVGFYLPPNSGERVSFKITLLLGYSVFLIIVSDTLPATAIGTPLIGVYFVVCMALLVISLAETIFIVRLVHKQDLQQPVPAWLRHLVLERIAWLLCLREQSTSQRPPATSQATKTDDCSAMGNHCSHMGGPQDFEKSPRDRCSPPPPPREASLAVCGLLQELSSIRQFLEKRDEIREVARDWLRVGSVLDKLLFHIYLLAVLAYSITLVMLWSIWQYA
# Muscarinic acetylcholine receptor M5 (Homo sapiens), sequence (P08912 whole entry): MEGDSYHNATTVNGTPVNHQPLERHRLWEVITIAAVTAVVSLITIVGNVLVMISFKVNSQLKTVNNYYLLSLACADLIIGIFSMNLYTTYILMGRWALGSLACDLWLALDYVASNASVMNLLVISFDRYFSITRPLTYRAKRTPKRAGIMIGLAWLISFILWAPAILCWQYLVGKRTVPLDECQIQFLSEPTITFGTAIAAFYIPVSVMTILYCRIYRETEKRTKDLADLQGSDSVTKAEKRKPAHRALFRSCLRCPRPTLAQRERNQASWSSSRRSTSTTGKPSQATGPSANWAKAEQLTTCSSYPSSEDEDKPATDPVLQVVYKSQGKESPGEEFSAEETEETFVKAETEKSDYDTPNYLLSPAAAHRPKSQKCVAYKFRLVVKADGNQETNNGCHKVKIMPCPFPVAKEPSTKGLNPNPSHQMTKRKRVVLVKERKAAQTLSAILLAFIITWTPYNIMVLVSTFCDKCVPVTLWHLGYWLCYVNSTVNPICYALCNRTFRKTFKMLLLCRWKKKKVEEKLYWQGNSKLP
# Alpha-1D adrenergic receptor (Homo sapiens), sequence (P25100 whole entry): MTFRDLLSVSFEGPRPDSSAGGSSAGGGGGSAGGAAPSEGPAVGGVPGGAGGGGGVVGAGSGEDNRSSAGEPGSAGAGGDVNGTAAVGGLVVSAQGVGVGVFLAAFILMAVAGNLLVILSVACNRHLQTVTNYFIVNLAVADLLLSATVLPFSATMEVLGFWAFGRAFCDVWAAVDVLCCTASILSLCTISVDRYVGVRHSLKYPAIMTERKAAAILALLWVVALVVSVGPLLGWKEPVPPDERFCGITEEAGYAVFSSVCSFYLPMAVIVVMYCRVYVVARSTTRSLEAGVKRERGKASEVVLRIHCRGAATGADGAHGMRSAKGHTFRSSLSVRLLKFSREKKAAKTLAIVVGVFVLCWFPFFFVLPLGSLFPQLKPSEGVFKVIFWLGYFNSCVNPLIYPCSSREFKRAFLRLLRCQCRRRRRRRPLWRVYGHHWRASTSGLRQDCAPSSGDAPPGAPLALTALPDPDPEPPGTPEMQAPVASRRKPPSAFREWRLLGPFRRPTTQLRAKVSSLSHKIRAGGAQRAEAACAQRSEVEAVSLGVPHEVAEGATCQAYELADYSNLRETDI
# Delta-type opioid receptor (Homo sapiens), sequence (P41143 whole entry): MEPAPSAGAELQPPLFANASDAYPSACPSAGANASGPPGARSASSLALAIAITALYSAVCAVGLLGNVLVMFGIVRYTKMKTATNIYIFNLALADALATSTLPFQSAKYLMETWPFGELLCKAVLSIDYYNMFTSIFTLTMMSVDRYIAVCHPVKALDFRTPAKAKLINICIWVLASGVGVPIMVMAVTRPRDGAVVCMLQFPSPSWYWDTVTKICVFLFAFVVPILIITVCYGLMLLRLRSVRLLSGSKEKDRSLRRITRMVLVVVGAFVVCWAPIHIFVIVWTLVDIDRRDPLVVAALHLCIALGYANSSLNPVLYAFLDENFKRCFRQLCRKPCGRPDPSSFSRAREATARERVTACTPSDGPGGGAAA
# Histamine H2 receptor, sequence (P25021 whole entry): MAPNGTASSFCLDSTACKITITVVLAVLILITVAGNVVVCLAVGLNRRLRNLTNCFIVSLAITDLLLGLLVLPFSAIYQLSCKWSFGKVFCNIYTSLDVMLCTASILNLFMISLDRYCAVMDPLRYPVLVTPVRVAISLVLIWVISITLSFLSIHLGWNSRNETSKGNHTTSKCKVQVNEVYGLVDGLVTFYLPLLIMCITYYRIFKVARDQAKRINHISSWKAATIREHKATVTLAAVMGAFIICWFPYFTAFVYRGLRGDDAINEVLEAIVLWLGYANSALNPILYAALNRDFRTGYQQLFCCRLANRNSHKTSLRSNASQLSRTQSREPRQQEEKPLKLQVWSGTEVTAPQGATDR
# 5-hydroxytryptamine receptor 7 (Homo sapiens), sequence (P34969 whole entry): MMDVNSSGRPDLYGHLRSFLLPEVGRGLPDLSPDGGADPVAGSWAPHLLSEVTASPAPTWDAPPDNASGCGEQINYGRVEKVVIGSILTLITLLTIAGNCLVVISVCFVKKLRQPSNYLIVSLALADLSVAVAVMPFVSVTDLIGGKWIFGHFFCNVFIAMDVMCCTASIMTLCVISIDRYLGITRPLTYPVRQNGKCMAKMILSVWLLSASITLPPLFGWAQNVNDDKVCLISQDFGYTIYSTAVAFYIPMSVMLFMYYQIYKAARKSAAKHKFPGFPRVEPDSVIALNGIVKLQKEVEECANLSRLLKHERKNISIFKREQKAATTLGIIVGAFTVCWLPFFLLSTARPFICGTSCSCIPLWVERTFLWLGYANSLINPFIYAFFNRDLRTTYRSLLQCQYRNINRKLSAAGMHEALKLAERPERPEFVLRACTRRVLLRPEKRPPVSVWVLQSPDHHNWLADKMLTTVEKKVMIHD
# 5-hydroxytryptamine receptor 6, sequence (P50406 whole entry): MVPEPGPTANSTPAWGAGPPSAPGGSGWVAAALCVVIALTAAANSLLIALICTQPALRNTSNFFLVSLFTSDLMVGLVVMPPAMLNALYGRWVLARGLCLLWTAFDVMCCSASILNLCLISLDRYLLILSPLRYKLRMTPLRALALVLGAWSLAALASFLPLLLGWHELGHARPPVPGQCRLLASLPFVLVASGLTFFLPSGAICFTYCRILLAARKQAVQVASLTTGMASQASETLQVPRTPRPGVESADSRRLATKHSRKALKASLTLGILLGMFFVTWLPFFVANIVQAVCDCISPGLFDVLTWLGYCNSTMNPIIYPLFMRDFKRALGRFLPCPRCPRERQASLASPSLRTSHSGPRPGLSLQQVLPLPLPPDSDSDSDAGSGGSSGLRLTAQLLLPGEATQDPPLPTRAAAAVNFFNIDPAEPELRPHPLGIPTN
# Sodium-dependent noradrenaline transporter, sequence (P23975 whole entry): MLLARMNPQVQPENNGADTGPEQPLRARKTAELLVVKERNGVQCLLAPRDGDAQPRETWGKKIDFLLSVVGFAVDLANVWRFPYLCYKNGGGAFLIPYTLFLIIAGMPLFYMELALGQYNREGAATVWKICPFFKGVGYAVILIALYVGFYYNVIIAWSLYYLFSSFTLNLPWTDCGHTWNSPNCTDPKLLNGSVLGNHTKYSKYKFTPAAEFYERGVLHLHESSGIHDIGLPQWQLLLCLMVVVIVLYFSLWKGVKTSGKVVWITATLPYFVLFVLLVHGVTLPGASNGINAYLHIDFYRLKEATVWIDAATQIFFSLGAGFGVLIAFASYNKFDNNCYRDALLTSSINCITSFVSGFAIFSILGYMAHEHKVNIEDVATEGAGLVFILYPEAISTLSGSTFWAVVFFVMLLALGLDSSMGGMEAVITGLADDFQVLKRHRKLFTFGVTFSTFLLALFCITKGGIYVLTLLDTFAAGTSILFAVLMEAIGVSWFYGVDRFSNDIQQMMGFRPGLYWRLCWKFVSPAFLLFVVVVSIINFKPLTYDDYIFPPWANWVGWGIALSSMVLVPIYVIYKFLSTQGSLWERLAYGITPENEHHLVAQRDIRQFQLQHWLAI
# Muscarinic acetylcholine receptor M4 (Homo sapiens), sequence (P08173 whole entry): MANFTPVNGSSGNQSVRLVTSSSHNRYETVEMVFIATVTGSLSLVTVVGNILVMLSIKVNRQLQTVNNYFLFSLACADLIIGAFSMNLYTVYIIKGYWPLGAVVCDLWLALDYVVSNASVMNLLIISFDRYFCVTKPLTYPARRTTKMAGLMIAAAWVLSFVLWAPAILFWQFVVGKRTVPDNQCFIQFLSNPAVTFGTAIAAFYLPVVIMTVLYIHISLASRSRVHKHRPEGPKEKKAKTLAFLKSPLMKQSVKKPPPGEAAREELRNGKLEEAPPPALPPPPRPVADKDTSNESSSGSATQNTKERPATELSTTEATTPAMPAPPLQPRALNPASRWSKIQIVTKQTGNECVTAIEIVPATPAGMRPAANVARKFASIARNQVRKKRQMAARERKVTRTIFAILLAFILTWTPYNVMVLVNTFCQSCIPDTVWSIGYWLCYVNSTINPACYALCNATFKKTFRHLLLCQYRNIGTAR
# Alpha-2B adrenergic receptor (Homo sapiens), sequence (P18089 whole entry): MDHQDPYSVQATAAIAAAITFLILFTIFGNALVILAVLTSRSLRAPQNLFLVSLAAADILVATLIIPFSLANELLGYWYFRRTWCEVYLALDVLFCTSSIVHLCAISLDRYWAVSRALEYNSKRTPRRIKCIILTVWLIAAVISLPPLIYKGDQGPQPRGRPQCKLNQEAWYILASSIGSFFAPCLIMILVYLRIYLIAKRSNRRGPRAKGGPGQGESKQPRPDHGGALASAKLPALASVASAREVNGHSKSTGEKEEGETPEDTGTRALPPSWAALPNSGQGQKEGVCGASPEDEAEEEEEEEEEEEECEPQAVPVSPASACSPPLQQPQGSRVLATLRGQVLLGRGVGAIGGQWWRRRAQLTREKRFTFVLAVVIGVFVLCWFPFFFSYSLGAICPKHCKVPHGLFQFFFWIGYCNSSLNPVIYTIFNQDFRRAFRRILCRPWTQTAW
SMILES,Efficacy (Rattus norvegicus [1]) [%],Efficacy [2] [%],Efficacy [3] [%],Efficacy [4] [%],Efficacy [5] [%],Efficacy (Histamine H1 receptor) [%],Efficacy [6] [%],Efficacy (Histamine H2 receptor) [%],Efficacy [7] [%],Ki [8] [nM],Efficacy [9] [%],Efficacy [10] [%],Efficacy [11] [%],Efficacy [12] [%],Ki [13] [nM],Efficacy [14] [%],Efficacy [15] [%],Efficacy [16] [%],Ki [17] [nM],Efficacy [18] [%],also measured
c1ccc(OCc2cc(OC[C@@H]3CCCN3)no2)cc1,27.1,36.1,55.6,95.9,16.9,55,15.7,57.2,23.9,> 10000,68,25.2,-1.2,76.9,4.1,34.4,33.6,28.3,1310,36.6,Efficacy [19]: 44.4%; Efficacy [20]: -4.7%; Efficacy [21]: 12.2%; Efficacy (Rattus norvegicus [22]): 5.7%; Efficacy [23]: 27.8%; Efficacy [24]: 32%; Efficacy [25]: 54.5%; Efficacy [26]: 32.4%; Efficacy [27]: 11.8%; Efficacy [28]: 7%; Efficacy [29]: 9.4%; Efficacy [30]: 10.3%; Efficacy [31]: 4.4%; Efficacy [32]: 39.3%
c1ccc(OCc2cc(OC[C@@H]3CCN3)no2)cc1,23.5,17.4,29.4,97.2,42.4,49.2,14,40.9,22.9,> 10000,77.9,22.4,2.3,68.8,33,26.3,35.1,51.6,1470,44.5,Efficacy [19]: 34.8%; Efficacy [20]: 5.9%; Efficacy [21]: 47.6%; Efficacy (Rattus norvegicus [22]): 2.5%; Efficacy [23]: 18.1%; Efficacy [24]: 30%; Efficacy [25]: 43.3%; Efficacy [26]: 15.2%; Efficacy [27]: 12.6%; Efficacy [28]: -0.1%; Efficacy [29]: 6.7%; Efficacy [30]: 4.9%; Efficacy [31]: 5.7%; Efficacy [32]: 43.8%
